Assay results from patent US20050043315A1, “Aminopyrimidine compounds, processes for their preparation and pharmaceutical compositions containing them” (priority 2002, published 2005).

Structure (SMILES)	melting point [°C]
CC(C)n1nc(-c2cnc(N)nc2-c2ccc(O)cc2)ccc1=O (hydrate or solvate) [Example 185, 6-[2-amino-4-(4-hydroxyphenyl)-5-pyrimidinyl]-2-isopropyl-3(2H)-pyridazinone]	246
CC(C)n1nc(-c2cnc(N)nc2-c2ccccc2O)ccc1=O (hydrate or solvate) [Example 186, 6-[2-Amino-4-(2-hydroxyphenyl)-5-pyrimidinyl]-2-isopropyl-3(2H)-pyridazinone]	241
CC(C)n1nc(-c2cnc(N)nc2-c2cccc(O)c2)ccc1=O (hydrate or solvate) [Example 187, 6-[2-Amino-4-(3-hydroxyphenyl)-5-pyrimidinyl]-2-isopropyl-3(2H)-pyridazinone]	204
Cn1nc(-c2cnc(N)nc2-c2ccc(O)cc2)ccc1=O (hydrate or solvate) [Example 223, 6-[2-Amino-4-(4-hydroxyphenyl)-5-pyrimidinyl)-2-methyl-3(2H)-pyridazinone]	250
Cn1nc(-c2cnc(N)nc2-c2ccccc2O)ccc1=O (hydrate or solvate) [Example 224, 6-[2-Amino-4-(2-hydroxyphenyl)-5-pyrimidinyl]-2-methyl-3(2H)-pyridazinone]	260
Cn1nc(-c2cnc(N)nc2-c2cccc(O)c2)ccc1=O (hydrate or solvate) [Example 225, 6-[2-Amino-4-(3-hydroxyphenyl)-5-pyrimidinyl]-2-methyl-3(2H)-pyridazinone]	285
Cn1nc(-c2cnc(N)nc2-c2ccccc2)ccc1=O [Example 3, 6-(2-Amino-4-phenyl-5-pyrimidinyl)-2-methyl-3(2H)-pyridazinone]	254 to 255
CCCn1nc(-c2cnc(N)nc2-c2ccccc2)ccc1=O [Example 5, 6-(2-Amino-4-phenyl-5-pyrimidinyl)-2-propyl-3(2H)-pyridazinone]	188 to 189
Nc1ncc(-c2ccc(=O)n(Cc3ccccc3)n2)c(-c2ccccc2)n1 [Example 6, 6-(2-Amino-4-phenyl-5-pyrimidinyl)-2-benzyl-3(2H)-pyridazinone]	229 to 230
CNc1ncc(-c2ccc(=O)[nH]n2)c(-c2ccccc2)n1 [Example 8, 6-[2-(Methylamino)-4-phenyl-5-pyrimidinyl]-3(2H)-pyridazinone]	> 255
CN(C)c1ncc(-c2ccc(=O)[nH]n2)c(-c2ccccc2)n1 [Example 9, 6-[2-(Dimethylamino)-4-phenyl-5-pyrimidinyl]-3(2H)-pyridazinone]	245 to 246
CNc1ncc(-c2ccc(=O)n(C(C)C)n2)c(-c2ccccc2)n1 [Example 10, 2-Isopropyl-6-[2-(methylamino)-4-phenyl-5-pyrimidinyl]-3(2H)-pyridazinone]	160 to 161
CC(C)n1nc(-c2cnc(N(C)C)nc2-c2ccccc2)ccc1=O [Example 11, 6-[2-(Dimethylamino)-4-phenyl-5-pyrimidinyl]-2-isopropyl-3(2H)-pyridazinone]	155 to 156
CC(C)n1nc(-c2cnc(N)nc2-c2ccc(F)cc2)ccc1=O [Example 13, 6-[2-amino-4-(4-fluorophenyl)-5-pyrimidinyl]-2-isopropyl-3(2H)-pyridazinone]	238 to 239
CC(C)n1nc(-c2cnc(N)nc2-c2ccccc2Br)ccc1=O [Example 15, 6-[2-Amino-4-(2-bromophenyl)-5-pyrimidinyl]-2-isopropyl-3(2H)-pyridazinone]	203 to 205
CC(C)n1nc(-c2cnc(N3CCOCC3)nc2-c2ccccc2)ccc1=O [Example 17, 2-isopropyl-6-[2-morpholino-4-phenyl-5-pyrimidinyl]-3(2H)-pyridazinone]	200.5 to 202
CC(C)n1nc(-c2cnc(Nc3ccccc3)nc2-c2ccccc2)ccc1=O [Example 19, 6-(2-Anilino-4-phenyl-5-pyrimidinyl)-2-isopropyl-3(2H)-pyridazinone]	200 to 202
CC(C)n1nc(-c2cnc(N)nc2-c2ccccc2F)ccc1=O [Example 20, 6-[2-Amino-4-(2-fluorophenyl)-5-pyrimidinyl]-2-isopropyl-3(2H)-pyridazinone]	239 to 240.5
CC(C)n1nc(-c2cnc(N)nc2-c2cccc(F)c2)ccc1=O [Example 21, 6-[2-Amino-4-(3-fluorophenyl)-5-pyrimidinyl]-2-isopropyl-3(2H)-pyridazinone]	220 to 221.5
CC(C)n1nc(-c2cnc(N)nc2-c2ccccc2Cl)ccc1=O [Example 22, 6-[2-Amino-4-(2-chlorophenyl)-5-pyrimidinyl]-2-isopropyl-3(2H)-pyridazinone]	227 to 228.5
CC(C)n1nc(-c2cnc(N)nc2-c2cccc(Cl)c2)ccc1=O [Example 23, 6-[2-Amino-4-(3-chlorophenyl)-5-pyrimidinyl]-2-isopropyl-3(2H)-pyridazinone]	236 to 237
CC(C)n1nc(-c2cnc(N)nc2-c2ccccc2C(F)(F)F)ccc1=O [Example 24, 6-{2-Amino-4-[2-(trifluoromethyl)phenyl]-5-pyrimidinyl}-2-isopropyl-3(2H)-pyridazinone]	160 to 161

Structure (SMILES)	melting point [°C]
CC(C)n1nc(-c2cnc(N)nc2-c2cccc(C(F)(F)F)c2)ccc1=O [Example 25, 6-{2-Amino-4-[3-(trifluoromethyl)phenyl]-5-pyrimidinyl}-2-isopropyl-3(2H)-pyridazinone]	163.5 to 165
CC(C)n1nc(-c2cnc(N)nc2-c2ccc(C(F)(F)F)cc2)ccc1=O [Example 26, 6-{2-Amino-4-[4-(trifluoromethyl)phenyl]-5-pyrimidinyl}-2-isopropyl-3(2H)-pyridazinone]	209 to 210.5
COc1ccc(-c2nc(N)ncc2-c2ccc(=O)[nH]n2)cc1 [Example 27, 6-[2-amino-4-(4-methoxyphenyl)-5-pyrimidinyl]-3(2H)-pyridazinone]	142
Nc1ncc(-c2ccc(=O)[nH]n2)c(-c2cccc(F)c2)n1 [Example 28, 6-[2-Amino-4-(3-fluorophenyl)-5-pyrimidinyl]-3(2H)-pyridazinone]	249
COc1ccc(-c2nc(N)ncc2-c2ccc(=O)[nH]n2)cc1F [Example 29, 6-[2-Amino-4-(3-fluoro-4-methoxyphenyl)-5-pyrimidinyl]-3(2H)-pyridazinone]	250
Nc1ncc(-c2ccc(=O)[nH]n2)c(-c2cccnc2)n1 [Example 31, 6-[2-Amino-4-(3-pyridinyl)-5-pyrimidinyl]-3(2H)-pyridazinone]	256
Nc1ncc(-c2ccc(=O)[nH]n2)c(-c2ccco2)n1 [Example 34, 6-[2-Amino-4-(2-furyl)-5-pyrimidinyl]-3(2H)-pyridazinone]	262 to 268
Cc1ccc(-c2nc(N)ncc2-c2ccc(=O)[nH]n2)cc1 [Example 35, 6-[2-Amino-4-(4-methylphenyl)-5-pyrimidinyl]-3(2H)-pyridazinone]	249
COc1ccc(-c2nc(N)ncc2-c2ccc(=O)[nH]n2)cc1OC [Example 37, 6-[2-Amino-4-(3,4-dimethoxyphenyl)-5-pyrimidinyl]-3(2H)-pyridazinone]	225
Nc1ncc(-c2ccc(=O)[nH]n2)c(-c2ccc(Cl)c(Cl)c2)n1 [Example 38, 6-[2-Amino-4-(3,4-dichlorophenyl)-5-pyrimidinyl]-3(2H)-pyridazinone]	300
Cc1ccccc1-c1nc(N)ncc1-c1ccc(=O)[nH]n1 [Example 39, 6-[2-Amino-4-(2-methylphenyl)-5-pyrimidinyl]-3(2H)-pyridazinone]	313
COc1ccccc1-c1nc(N)ncc1-c1ccc(=O)[nH]n1 [Example 40, 6-[2-Amino-4-(2-methoxyphenyl)-5-pyrimidinyl]-3(2H)-pyridazinone]	273
Nc1ncc(-c2ccc(=O)[nH]n2)c(-c2cccs2)n1 [Example 41, 6-[2-Amino-4-(2-thienyl)-5-pyrimidinyl]-3(2H)-pyridazinone]	265
Cc1cccc(-c2nc(N)ncc2-c2ccc(=O)[nH]n2)c1 [Example 42, 6-[2-Amino-4-(3-methylphenyl)-5-pyrimidinyl]-3(2H)-pyridazinone]	216
COc1cccc(-c2nc(N)ncc2-c2ccc(=O)[nH]n2)c1 [Example 43, 6-[2-Amino-4-(3-methoxyphenyl)-5-pyrimidinyl)-3(2H)-pyridazinone]	134
COc1ccc(-c2nc(N)ncc2-c2ccc(=O)n(C(C)C)n2)cc1 [Example 44, 6-[2-amino-4-(4-methoxyphenyl)-5-pyrimidinyl]-2-isopropyl-3(2H)-pyridazinone]	216.5
CC(C)n1nc(-c2cnc(N)nc2-c2ccc(Cl)cc2)ccc1=O [Example 45, 6-[2-Amino-4-(4-chlorophenyl)-5-pyrimidinyl]-2-isopropyl-3(2H)-pyridazinone]	195
COc1ccc(-c2nc(N)ncc2-c2ccc(=O)n(C(C)C)n2)cc1F [Example 46, 6-[2-Amino-4-(3-fluoro-4-methoxyphenyl)-5-pyrimidinyl]-2-isopropyl-3(2H)-pyridazinone]	174
Cc1ccc(-c2nc(N)ncc2-c2ccc(=O)n(C(C)C)n2)cc1 [Example 48, 6-[2-Amino-4-(4-methylphenyl)-5-pyrimidinyl]-2-isopropyl-3(2H)-pyridazinone]	224
CC(C)n1nc(-c2cnc(N)nc2-c2ccc(F)c(F)c2)ccc1=O [Example 49, 6-[2-Amino-4-(3,4-difluorophenyl)-5-pyrimidinyl]-2-isopropyl-3(2H)-pyridazinone]	208
CC(C)n1nc(-c2cnc(N)nc2-c2ccc(Cl)c(Cl)c2)ccc1=O [Example 50, 6-[2-Amino-4-(3,4-dichlorophenyl)-5-pyrimidinyl]-2-isopropyl-3(2H)-pyridazinone]	176
COc1ccc(-c2nc(N)ncc2-c2ccc(=O)n(C(C)C)n2)cc1OC [Example 51, 6-[2-Amino-4-(3,4-dimethoxyphenyl)-5-pyrimidinyl]-2-isopropyl-3(2H)-pyridazinone]	167
